Measurements taken from patent US5770734A, “N-substituted-2-aminoquinolines useful for treating hypofunction of the cholinergic system” (American Home Products Corporation, priority 1992, dated 1998).
Structures can show the parent of a compound that is named as a salt. Where two headings read alike, the source gives them in different places.

How the values were obtained:
M1 muscarinic receptor = biological target: T1, M1 muscarinic receptor (Rattus norvegicus, UniProt P08482); assay: M1 receptor binding ([^3 H]-pirenzepine); parameters: species or system rat (male Sprague-Dawley)
T1 sequence (P08482 1-460): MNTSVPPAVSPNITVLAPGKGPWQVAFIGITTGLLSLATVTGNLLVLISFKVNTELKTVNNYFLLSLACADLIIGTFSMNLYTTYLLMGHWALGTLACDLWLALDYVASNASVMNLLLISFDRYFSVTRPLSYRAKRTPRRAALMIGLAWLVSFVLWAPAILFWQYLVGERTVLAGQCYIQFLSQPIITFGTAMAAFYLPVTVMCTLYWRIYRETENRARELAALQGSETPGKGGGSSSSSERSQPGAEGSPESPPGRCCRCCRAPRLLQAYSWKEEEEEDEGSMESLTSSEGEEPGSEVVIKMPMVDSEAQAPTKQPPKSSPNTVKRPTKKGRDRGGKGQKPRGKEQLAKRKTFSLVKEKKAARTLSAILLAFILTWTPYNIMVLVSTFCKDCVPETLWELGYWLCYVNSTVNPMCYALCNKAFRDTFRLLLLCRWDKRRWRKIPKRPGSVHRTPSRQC
Protocol: Compounds are tested for their ability to affect M1 muscarinic binding through use of [^3 H]-pirenzepine ([^3 H]PZ) as a prototypic M1 receptor ligand. Male Sprague-Dawley (Charles River) rats are used. Dose selection is typically in the concentration range of 10^-9 to 10^-4 M. Test and reference compounds are dissolved and diluted in water or ethanol and are then added to the assay buffer. The appropriate vehicle is added to the assay buffer for control testing.
The rats (approximately 300 gm body weight) have free access to food and water and are housed in groups of four to six. On the test day, the rats are euthanized by decapitation and brain tissue is dissected and homogenized using a hand-held teflon-coated pestle, in 20 volumes of 0.32M sucrose (20 strokes at 4° C.). After centrifugation (747×g for 10 minutes at 4° C.), the resultant supernatant is decanted and recentrifuged (18677×g for 20 minutes at 4° C.). The resultant pellet is resuspended in the original volume of 0.32M sucrose and frozen. After thawing, the suspension is diluted (1:1 v/v) with 10 mM Na2 HPO4 /KH2 PO4 buffer (pH=7.4). [^3 H]PZ (0.5 nM, 0.04 μCi) is then incubated with a 100 μl sample of the tissue suspension in the above buffer (1 ml final volume, including a 10 μl sample of test compound or vehicle). […] After 60 minutes of incubation at 25° C. (in the dark), the binding is terminated by vacuum filtration onto Whatman GF/B filters (pre-soaked for 60 minutes in 0.1% (w/v) polyethylenimine to reduce non-specific binding). After three washes with the previously mentioned buffer (4° C., 3 ml/wash), the vacuum is allowed to run for two minutes before the filter-trapped radioactivity is assayed by liquid scintillation spectroscopy.
Data are presented as the percent inhibition ([control-test]/control×100%) or enhancement ([test-control]/control×100%) of [^3 H]PZ binding by the test or reference compound. The IC50 value (the drug concentration which causes a 50% inhibition of specific [^3 H]PZ binding) is calculated through the use of the EDOSE program (with probit transformation written by a person for use in STAT80). Increases in [^3 H]PZ are reported as percent increase (versus control) for a given test drug concentration.

M2 receptors [1] = biological target: T2, M2 receptors (Rattus norvegicus, UniProt P10980); assay: biochemical; format: binding
T2 sequence (P10980 1-466): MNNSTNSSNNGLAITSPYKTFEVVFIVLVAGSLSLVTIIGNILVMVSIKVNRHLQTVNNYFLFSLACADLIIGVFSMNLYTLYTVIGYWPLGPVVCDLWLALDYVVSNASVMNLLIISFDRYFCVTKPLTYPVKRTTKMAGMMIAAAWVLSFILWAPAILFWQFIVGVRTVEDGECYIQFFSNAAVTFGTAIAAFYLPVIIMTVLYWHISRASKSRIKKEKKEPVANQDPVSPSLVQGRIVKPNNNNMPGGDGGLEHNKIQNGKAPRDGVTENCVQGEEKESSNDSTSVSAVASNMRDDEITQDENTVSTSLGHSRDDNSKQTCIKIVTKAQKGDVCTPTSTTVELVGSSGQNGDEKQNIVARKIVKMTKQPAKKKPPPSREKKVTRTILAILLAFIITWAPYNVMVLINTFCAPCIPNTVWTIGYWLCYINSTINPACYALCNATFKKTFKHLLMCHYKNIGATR

M2 receptors [2] = assay: biochemical; format: binding; conditions: Table 1; ratio of M2 IC50 to M1 IC50
[3] = test system: scopolamine-induced hyperactivity, a proposed muscarinic M1 -mediated effect; assay: Scopolamine-induced hyperactivity (locomotor activity); format: in vivo, rat; conditions: for Total activity: N=10
Protocol: Compounds were evaluated for the ability to attenuate scopolamine-induced hyperactivity, a proposed muscarinic M1 -mediated effect. Animals were permitted to habituate for 30 minutes in locomotor activity chambers (Digiscan, Omnitech; Columbus, Ohio) in which infrared detectors were used to measure movement in 3 axes. The animals were then injected i.p. with vehicle alone, scopolamine alone (1.7 mg/kg) or both scopolamine and one dose of the test compound. Animals were then replaced in the chambers and locomotor activity was measured for an additional 1 hour period. Total activity measures (vertical+horizintal movements) were collected and statistically analyzed in four 15 minute periods.

[4] = Table 1, rat brain tissue, [^3 H]PZ 0.5 nM, read-out: ^3 H-Pirenzepine M1 IC50

| Molecule | IC50 (M1 muscarinic receptor; [4]) [µM] | IC50 (M2 receptors [1]; read-out: ^3 H-QNB M2 IC50) [µM] | M2/M1 (M2 receptors [2]) | also measured |
| --- | --- | --- | --- | --- |
| 3-[[[(3-chlorophenyl)amino]carbonyl]oxy]-N,N,N-trimethyl-1-propynaminium chloride [reference compound] |  |  |  | IC50 (M1 muscarinic receptor; typical results, reference drugs, read-out: IC50, [^3 H]PZ binding (M1)): 1.3 µM; IC50 (M2 receptors [1]; typical results, reference drugs, read-out: IC50, [^3 H]QNB binding (M2)): 42 µM |
| Cl.Cl.c1ccc2nc(NCCCN3CCOCC3)ccc2c1 [Example 2, N-[3-(4-Morpholinyl)propyl]-2-quinolinamine dihydrochloride] | 2.5 | 116 | 46 |  |
| Cc1cc(NCCCN2CCN(C)CC2)nc2ccccc12 [Example 3, 4-Methyl-N-[3-(4-methyl-1-piperazinyl)propyl]-2-quinolinamine (E)-2-butenedioate (1:2) hemihydrate] | 0.6 | 28 | 46 |  |
| Cc1cc(NCCCCN2CCOCC2)nc2ccccc12 [Example 4, 4-Methyl-N-[4-(4-morpholinyl)butyl]-2-quinolinamine (E)-2-butenedioate (1:1.15)] | 0.54 | 22 | 41 |  |
| Cc1cc(NCCN2CCOCC2)nc2ccccc12 [Example 5, 4-Methyl-N-[2-(4-morpholinyl)ethyl]-2-quinolinamine (E)-2-butenedioate (3:2) quarter hydrate] | 9.7 | 200 | 21 |  |
| Cc1cc(NCCCCN2CCN(C)CC2)nc2ccccc12 [Example 6, 4-Methyl-N-[4-(4-methyl-1-piperazinyl)butyl]-2-quinolinamine (E)-2-butenedioate (1:2) one and three quarter hydrate] | 0.37 | 5.5 | 15 |  |
| Cc1cc(NCCCN2CCCC2=O)nc2ccccc12 [Example 7, 4-Methyl-N-[3-(1-pyrrolidin-2-on)propyl]-2-quinolinamine hydrochloride three-quarter hydrate] | 1.3 | 20 | 15 |  |
| Cc1cc(NCCCN2CCCCC2)nc2ccccc12 [Example 8, 4-Methyl-N-[3-(1-piperidinyl)propyl]-2-quinolinamine (E)-2-butenedioate (1:1) hemihydrate] | 0.42 | 4.6 | 11 |  |
| CCc1cc(NCCCN2CCOCC2)nc2ccccc12 [Example 9, 4-Ethyl-N-[3-(4-morpholinyl)propyl]-2-quinolinamine dihydrochloride three quarter hydrate] | 2 | 44 | 22 |  |
| c1ccc2c(C3CCCCC3)cc(NCCCN3CCOCC3)nc2c1 [Example 10, 4-Cyclohexyl-N-[3-(4-morpholinyl)propyl]-2-quinolinamine dihydrochlorideone quarter hydrate] | 2.3 | 13 | 6 |  |
| CCN(CC)CCCNc1cc(C)c2ccccc2n1 [Example 11, N,N-Diethyl-N'-(4-methyl-2-quinolinyl)-1,3-propanediamine dihydrochloride hemihydrate] | 0.21 | 18 | 86 |  |
| Cc1cc(NCCN(C)C)nc2ccccc12.O=C(O)/C=C/C(=O)O [Example 12, N,N-Dimethyl-N'-(4-methyl-2-quinolinyl)-1,2-ethanediamine (E)-2-butenedioate (1:1)] | 1.32 | 35 | 27 |  |
| Cc1cc(NCCCN(C)C)nc2ccccc12.O=C(O)/C=C/C(=O)O.O=C(O)/C=C/C(=O)O [Example 13, N,N-Dimethyl-N'-(4-methyl-2-quinolinyl)-1,3-propanediamine (E)-2-butenedioate (1:2)] | 0.82 | 21 | 26 |  |
| O=C1CCCN1CC#CCN1CCCC1 [Oxotremorine sesquifumarate, reference compound] |  |  |  | IC50 (M1 muscarinic receptor): 0.11 µM; IC50 (M2 receptors [1]): 1.3 µM |
| O=C1CCCN1CC#CCN1CCCC1 [Oxotremorine] |  |  |  | minimal effective dose ([3]; Rattus norvegicus, ip, read-out: minimum effective dose): 0.3 mg/kg; effect on scopolamine hyperactivity at lower doses ([3]; doses below 0.3 mg/kg): some effect of oxotremorine was seen at lower doses; Total activity ([3]; scopolamine + oxotremorine 0.03 mg/kg, 15 min): 3020; Total activity ([3]; scopolamine + oxotremorine 0.03 mg/kg, 30 min): 4083; Total activity ([3]; scopolamine + oxotremorine 0.03 mg/kg, 45 min): 3332; Total activity ([3]; scopolamine + oxotremorine 0.03 mg/kg, 60 min): 2265; Total activity ([3]; scopolamine + oxotremorine 0.1 mg/kg, 15 min): 5709; Total activity ([3]; scopolamine + oxotremorine 0.1 mg/kg, 30 min): 4305; Total activity ([3]; scopolamine + oxotremorine 0.1 mg/kg, 45 min): 3725; Total activity ([3]; scopolamine + oxotremorine 0.1 mg/kg, 60 min): 2571; Total activity ([3]; scopolamine + oxotremorine 0.3 mg/kg, 15 min): 2523; Total activity ([3]; scopolamine + oxotremorine 0.3 mg/kg, 30 min): 1819; Total activity ([3]; scopolamine + oxotremorine 0.3 mg/kg, 45 min): 2351; Total activity ([3]; scopolamine + oxotremorine 0.3 mg/kg, 60 min): 1573 |
